26 molecules from patent US20240425482A1, “PYRROLIDINE DERIVATIVES AS DDRS INHIBITORS” (CHIESI FARMACEUTICI S.P.A., priority 2021, published 2024) can be followed below.

Read-outs that look alike come from different tables or passages of the source. Some results are limits rather than exact numbers.

The target in one assay is DDR1 (Homo sapiens (Human), UniProt Q08345). As to the kind of experiment: DDR1 LanthaScreen Europium Kinase Binding assay. As to the method:
(§1) DDR1 and DDR2 binding assays were performed using Life Technologies LanthaScreen™ Europium Kinase Binding assay. The compounds were incubated with 5 nM DDR1 (Carna Biosciences) or 5 nM DDR2 (Life Technologies) for 1 hour at rt in white 384-well OptiPlate (PerkinElmer), containing 20 nM or 10 nM Kinase Tracer 178 respectively and 2 nM Europium labelled anti-GST antibody (Life Technologies) in assay buffer (50 mM HEPES pH 7.5, 10 mM MgCI2, 1 mM EGTA and 0.01% BRIJ35). The ratio of fluorescence emission 665 nm/615 nm after excitation at 340 nm was obtained using the Tecan Spark 20M plate reader. IC50 values were determined in GraphPad Prism 7.0 software, using 4 parameter model: log(inhibitor) vs. response. IC50 values were converted in Ki using the Cheng-Prusoff equation (Ki=IC50/(1+[Tracer]/Kd).
(§2) Compounds C1 and C2 were tested in the same binding assay described above.
Background: TR-FRET usually uses a lanthanide donor and a delayed reading to cut background.

Another assay addresses DDR2 (Homo sapiens (Human), UniProt Q16832). As to the kind of experiment: DDR2 LanthaScreen Europium Kinase Binding assay. As to the method: as §1, §2
Where [1] appears, read: binding, 5 nM DDR1, 20 nM Kinase Tracer 178, 1 hour at rt, Ki from IC50 by Cheng-Prusoff, read-out: Ki DDR1.
Setting [2] is: binding, 5 nM DDR2, 10 nM Kinase Tracer 178, 1 hour at rt, Ki from IC50 by Cheng-Prusoff, read-out: Ki DDR2.

DDR2, sequence (Q16832 22-855): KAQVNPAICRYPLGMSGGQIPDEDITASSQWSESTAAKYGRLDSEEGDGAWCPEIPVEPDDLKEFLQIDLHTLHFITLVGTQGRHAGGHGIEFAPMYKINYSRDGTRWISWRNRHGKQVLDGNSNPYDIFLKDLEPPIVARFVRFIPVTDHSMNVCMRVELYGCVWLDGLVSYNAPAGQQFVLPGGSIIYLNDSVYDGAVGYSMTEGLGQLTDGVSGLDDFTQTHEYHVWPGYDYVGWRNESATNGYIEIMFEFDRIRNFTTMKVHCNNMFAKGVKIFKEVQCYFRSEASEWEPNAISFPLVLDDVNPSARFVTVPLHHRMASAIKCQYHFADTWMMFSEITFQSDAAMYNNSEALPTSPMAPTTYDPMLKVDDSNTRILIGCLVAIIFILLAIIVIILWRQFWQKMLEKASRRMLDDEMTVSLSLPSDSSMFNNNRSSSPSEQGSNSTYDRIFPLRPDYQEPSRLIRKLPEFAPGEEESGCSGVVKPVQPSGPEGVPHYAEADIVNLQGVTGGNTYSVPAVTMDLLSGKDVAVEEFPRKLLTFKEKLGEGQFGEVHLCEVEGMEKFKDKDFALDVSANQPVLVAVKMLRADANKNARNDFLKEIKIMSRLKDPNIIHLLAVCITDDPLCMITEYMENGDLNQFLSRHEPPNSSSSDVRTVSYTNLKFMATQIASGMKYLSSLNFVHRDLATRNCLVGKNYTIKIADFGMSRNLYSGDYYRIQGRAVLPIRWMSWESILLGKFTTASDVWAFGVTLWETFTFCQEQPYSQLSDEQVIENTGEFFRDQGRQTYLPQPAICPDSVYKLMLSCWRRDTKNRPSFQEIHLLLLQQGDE
DDR1, sequence (Q08345 19-913): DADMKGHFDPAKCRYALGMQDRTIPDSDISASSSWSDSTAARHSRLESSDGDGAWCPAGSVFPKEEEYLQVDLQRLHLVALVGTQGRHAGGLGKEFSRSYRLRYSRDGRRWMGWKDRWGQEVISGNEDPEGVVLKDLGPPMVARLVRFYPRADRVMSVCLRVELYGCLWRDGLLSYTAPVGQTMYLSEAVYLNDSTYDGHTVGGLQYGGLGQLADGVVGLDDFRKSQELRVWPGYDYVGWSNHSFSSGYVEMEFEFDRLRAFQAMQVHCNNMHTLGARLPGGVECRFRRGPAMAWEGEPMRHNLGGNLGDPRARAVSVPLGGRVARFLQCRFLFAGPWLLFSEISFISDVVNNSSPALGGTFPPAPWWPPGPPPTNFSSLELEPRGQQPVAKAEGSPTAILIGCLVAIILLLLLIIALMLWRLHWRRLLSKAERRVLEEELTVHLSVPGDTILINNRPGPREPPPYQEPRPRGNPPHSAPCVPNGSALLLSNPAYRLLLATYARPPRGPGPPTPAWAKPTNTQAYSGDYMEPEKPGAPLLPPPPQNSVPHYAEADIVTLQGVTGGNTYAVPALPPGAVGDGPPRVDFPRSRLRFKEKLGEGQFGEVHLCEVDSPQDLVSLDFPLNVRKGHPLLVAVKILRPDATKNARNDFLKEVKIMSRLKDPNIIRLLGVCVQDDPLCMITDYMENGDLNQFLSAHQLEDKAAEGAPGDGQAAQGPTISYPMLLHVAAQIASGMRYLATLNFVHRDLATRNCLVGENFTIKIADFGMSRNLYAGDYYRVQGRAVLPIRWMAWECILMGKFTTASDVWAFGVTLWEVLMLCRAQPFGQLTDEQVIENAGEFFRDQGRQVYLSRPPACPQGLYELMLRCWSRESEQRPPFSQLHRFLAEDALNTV

Regarding `CNC(=O)c1cc(N2CCC(c3cc(C(=O)Nc4cccc(C(F)(F)F)c4)ccc3C)C2)ccn1` (stereo not shown) [Example 1, N-methyl-4-(3-(2-methyl-5-((3-(trifluoromethyl)phenyl)carbamoyl)phenyl)pyrrolidin-1-yl)picolinamide], the inhibition constant Ki (in general, the dissociation constant of the complex between target and ligand, obtained from inhibition or displacement) is below 0.01 µM at DDR1 (setting [1]) and below 10 nM on DDR2 (setting [2]).
On the same counts, the results for `Cc1ccc(C(=O)Nc2cccc(C(F)(F)F)c2)cc1[C@H]1CCN(c2cncc(C(N)=O)c2)C1` [Example 18, (R)-5-(3-(2-methyl-5-((3-(trifluoromethyl)phenyl)carbamoyl)phenyl)pyrrolidin-1-yl)nicotinamide] are below 0.01 µM and 10 to 25 nM.
On the same counts, the results for `Cc1ccc(C(=O)Nc2cccc(C(F)(F)F)c2)cc1[C@@H]1CCN(c2ccnc3[nH]ccc23)C1` [Example 42, (S)-3-(1-(1H-pyrrolo[2,3-b]pyridin-4-yl)pyrrolidin-3-yl)-4-methyl-N-(3-(trifluoromethyl)phenyl)benzamide] are 0.01 to 0.025 µM and 25 to 60 nM.
For `Cc1ccc(C(=O)Nc2cccc(C(F)(F)F)c2)cc1C1CCN(C(=O)c2cccnc2)C1` (stereo not shown) [Example 14, 4-methyl-3-(1-nicotinoylpyrrolidin-3-yl)-N-(3-(trifluoromethyl)phenyl)benzamide], in that order: below 0.01 µM and below 10 nM.
For `COCCOc1cncc(N2CC[C@@H](c3cc(C(=O)Nc4cccc(C(F)(F)F)c4)ccc3C)C2)c1` [Example 30, (S)-3-(1-(5-(2-methoxyethoxy)pyridin-3-yl)pyrrolidin-3-yl)-4-methyl-N-(3-(trifluoromethyl)phenyl)benzamide], the figures for the inhibitory constant (Ki) at DDR1 (setting [1]) and on DDR2 (setting [2]) were below 0.01 µM and 10 to 25 nM, respectively.
For `Cc1ccc(C(=O)Nc2ccc(CN(C)C)c(C(F)(F)F)c2)cc1[C@@H]1CCN(c2cncc(C(N)=O)c2)C1` [Example 58, (S)-5-(3-(5-((4-((dimethylamino)methyl)-3-(trifluoromethyl)phenyl)carbamoyl)-2-methylphenyl)pyrrolidin-1-yl)nicotinamide], in that order: below 0.01 µM and 10 to 25 nM.
For the molecule `Cc1ccc(C(=O)Nc2cccc(C(F)(F)F)c2)cc1[C@@H]1CCN(c2ccc(Nc3cnn(C)c3)nc2)C1` [Example 44, (S)-4-methyl-3-(1-(6-((1-methyl-1H-pyrazol-4-yl)amino)pyridin-3-yl)pyrrolidin-3-yl)-N-(3-(trifluoromethyl)phenyl)benzamide], the Ki on DDR1 (setting [1]) lay within 0.01 to 0.025 µM; on DDR2 (setting [2]) it was 25 to 60 nM.
For `Cc1ccc(C(=O)Nc2cccc(C(F)(F)F)c2)cc1C1CCN(c2cncc(Br)c2)C1` (stereo not shown) [Example 13, 3-(1-(5-bromopyridin-3-yl)pyrrolidin-3-yl)-4-methyl-N-(3-(trifluoromethyl)phenyl)benzamide], in that order: 0.01 to 0.025 µM and 25 to 60 nM.
On the same counts, the results for `Cc1ccc(C(=O)Nc2cccc(C(F)(F)F)c2)cc1[C@@H]1CCN(c2cncc(N3CCC4(COC4)C3)c2)C1` [Example 39, (S)-3-(1-(5-(2-oxa-6-azaspiro[3.4]octan-6-yl)pyridin-3-yl)pyrrolidin-3-yl)-4-methyl-N-(3-(trifluoromethyl)phenyl)benzamide] are 0.01 to 0.025 µM and above 60 nM.
On the same counts, the results for `Cc1ccc(C(=O)Nc2cccc(C(F)(F)F)c2)cc1C1CCN(c2ccnc(C#N)c2)C1` (stereo not shown) [Example 24, 3-(1-(2-cyanopyridin-4-yl)pyrrolidin-3-yl)-4-methyl-N-(3-(trifluoromethyl)phenyl)benzamide] are 0.025 to 0.06 µM and above 60 nM.
In the case of `Cc1ccc(C(=O)Nc2cccc(C(F)(F)F)c2)cc1C1CCN(c2cncc(NCCN3CCOCC3)c2)C1` (stereo not shown) [Example 22, 4-methyl-3-(1-(5-((2-morpholinoethyl)amino)pyridin-3-yl)pyrrolidin-3-yl)-N-(3-(trifluoromethyl)phenyl)benzamide], the figures for the Ki on DDR1 (setting [1]) and on DDR2 (setting [2]) were below 0.01 µM and 10 to 25 nM, respectively.
For `Cc1ccc(C(=O)Nc2cccc(C(F)(F)F)c2)cc1C1CCN(c2cncc(N3CCN(C)CC3)c2)C1` (stereo not shown) [Example 12, 4-methyl-3-(1-(5-(4-methylpiperazin-1-yl)pyridin-3-yl)pyrrolidin-3-yl)-N-(3-(trifluoromethyl)phenyl)benzamide], in that order: below 0.01 µM and 10 to 25 nM.
For `Cc1ccc(C(=O)Nc2cccc(C(F)(F)F)c2)cc1[C@@H]1CCN(c2cncc(N3CC4(COC4)C3)c2)C1` [Example 37, (S)-3-(1-(5-(2-oxa-6-azaspiro[3.3]heptan-6-yl)pyridin-3-yl)pyrrolidin-3-yl)-4-methyl-N-(3-(trifluoromethyl)phenyl)benzamide], in that order: below 0.01 µM and 10 to 25 nM.
On the same counts, the results for `COCCn1cc(Nc2cncc(N3CC[C@@H](c4cc(C(=O)Nc5cccc(C(F)(F)F)c5)ccc4C)C3)c2)cn1` [Example 46, (S)-3-(1-(5-((1-(2-methoxyethyl)-1H-pyrazol-4-yl)amino)pyridin-3-yl)pyrrolidin-3-yl)-4-methyl-N-(3-(trifluoromethyl)phenyl)benzamide] are below 0.01 µM and 10 to 25 nM.
Regarding `CNC(=O)c1cc(N2CC[C@H](c3cc(C(=O)Nc4cccc(C(F)(F)F)c4)ccc3C)C2)ccn1` [Example 27, (R)-N-methyl-4-(3-(2-methyl-5-((3-(trifluoromethyl)phenyl)carbamoyl)phenyl)pyrrolidin-1-yl)picolinamide], the inhibition constant Ki is below 0.01 µM at DDR1 (setting [1]) and 25 to 60 nM on DDR2 (setting [2]).
For `Cc1ccc(C(=O)Nc2cc(CN3CCCC3)cc(C(F)(F)F)c2)cc1[C@@H]1CCN(c2cncc(C(N)=O)c2)C1` [Example 57, (S)-5-(3-(2-methyl-5-((3-(pyrrolidin-1-ylmethyl)-5-(trifluoromethyl)phenyl)carbamoyl)phenyl)pyrrolidin-1-yl)nicotinamide], in that order: below 0.01 µM and below 10 nM.
On the same counts, the results for `CNc1ncc(N2CC[C@@H](c3cc(C(=O)Nc4cccc(C(F)(F)F)c4)ccc3C)C2)cn1` [Example 49, (S)-4-methyl-3-(1-(2-(methylamino)pyrimidin-5-yl)pyrrolidin-3-yl)-N-(3-(trifluoromethyl)phenyl)benzamide] are below 0.01 µM and 10 to 25 nM.
On the same counts, the results for `Cc1ccc(C(=O)Nc2cccc(C(F)(F)F)c2)cc1C1CCN(c2ccnc(C(N)=O)c2)C1` (racemic) [Example 53, 4-(3-(2-methyl-5-((3-(trifluoromethyl)phenyl)carbamoyl)phenyl)pyrrolidin-1-yl)picolinamide] are below 0.01 µM and below 10 nM.
Regarding `Cc1ccc(C(=O)Nc2cccc(C(F)(F)F)c2)cc1C1CCN(c2cncc(CN3CCOCC3)c2)C1` (stereo not shown) [Example 11, 4-methyl-3-(1-(5-(morpholinomethyl)pyridin-3-yl)pyrrolidin-3-yl)-N-(3-(trifluoromethyl)phenyl)benzamide], the inhibition constant Ki is below 0.01 µM on DDR1 (setting [1]) and 10 to 25 nM at DDR2 (setting [2]).
On the same counts, the results for `Cc1ccc(C(=O)Nc2cccc(C(F)(F)F)c2)cc1[C@@H]1CCN(c2cncc(C(=O)NCCN(C)C)c2)C1` [Example 34, (S)-N-(2-(dimethylamino)ethyl)-5-(3-(2-methyl-5-((3-(trifluoromethyl)phenyl)carbamoyl)phenyl)pyrrolidin-1-yl)nicotinamide] are below 0.01 µM and below 10 nM.
On the same counts, the results for `CNC(=O)c1cc(N2CC[C@@H](c3cc(C(=O)Nc4cccc(C(F)(F)F)c4)ccc3C)C2)ccn1` [Example 25, (S)-N-methyl-4-(3-(2-methyl-5-((3-(trifluoromethyl)phenyl)carbamoyl)phenyl)pyrrolidin-1-yl)picolinamide] are below 0.01 µM and below 10 nM.
For `Cc1ccc(C(=O)Nc2cccc(C(F)(F)F)c2)cc1[C@@H]1CCN(c2cncc(C(=O)N3CCC(F)(F)CC3)c2)C1` [Example 32, (S)-3-(1-(5-(4,4-difluoropiperidine-1-carbonyl)pyridin-3-yl)pyrrolidin-3-yl)-4-methyl-N-(3-(trifluoromethyl)phenyl)benzamide], in that order: 0.025 to 0.06 µM and above 60 nM.
In the case of `Cc1ccc(C(=O)Nc2cccc(C(F)(F)F)c2)cc1C1CCN(c2cncc(C#N)c2)C1` (stereo not shown) [Example 4, 3-(1-(5-cyanopyridin-3-yl)pyrrolidin-3-yl)-4-methyl-N-(3-(trifluoromethyl)phenyl)benzamide], the Ki at DDR1 (setting [1]) lay within 0.01 to 0.025 µM; at DDR2 (setting [2]) it was 25 to 60 nM.
On the same counts, the results for `Cc1ccc(C(=O)Nc2cccc(C(F)(F)F)c2)cc1[C@@H]1CCN(c2cnc(Nc3cnn(C)c3)nc2)C1` [Example 48, (S)-4-methyl-3-(1-(2-((1-methyl-1H-pyrazol-4-yl)amino)pyrimidin-5-yl)pyrrolidin-3-yl)-N-(3-(trifluoromethyl)phenyl)benzamide] are below 0.01 µM and below 10 nM.
Consider `CC(=O)Nc1cc(N2CC[C@@H](c3cc(C(=O)Nc4cccc(C(F)(F)F)c4)ccc3C)C2)ccn1` [Example 41, (S)-3-(1-(2-acetamidopyridin-4-yl)pyrrolidin-3-yl)-4-methyl-N-(3-(trifluoromethyl)phenyl)benzamide], for which the inhibition constant Ki is below 0.01 µM at DDR1 (setting [1]) and below 10 nM at DDR2 (setting [2]).
As to `Cc1ccc(C(=O)Nc2cccc(C(F)(F)F)c2)cc1C1CN1c1cccnc1` (stereo not shown) [Compound C1, 4-methyl-3-(1-(pyridin-3-yl)aziridin-2-yl)-N-(3-(trifluoromethyl)phenyl)benzamide, reference compound], the Ki on DDR1 (same binding assay, numeric values, read-out: DDR1 Ki) was 0.174 µM; at DDR2 (DDR2 Ki (nM), same binding assay, numeric values), 305 nM.
